Data from US20260001928A1 (CORTERIA PHARMACEUTICALS, priority 2022, published 2026).
pEC50: −log10 of the molar value. *1 amine or outer side, *2 acyl side, *3 side chain or, on linkers, in order; H or OH if unused. Where a SMILES comes first, the peptide text is derived from it. Side-chain parts run from the residue outwards. [ ]: non-standard residue; d: D form. The star is where a group is joined. C18 diacid = O=C(O)CCCCCCCCCCCCCCCCC(=O)*; γGlu = O=C(O)[C@H](CCC(=O)[*:2])N[*:1]; Ac6c = NC1(C(=O)O)CCCCC1; Ac5c = NC1(C(=O)O)CCCC1; Api = NC1(C(=O)O)CCNCC1; Dap = NC[C@H](N)C(=O)O

Key:
CFR1R receptor = molecular target: T1, CFR1R receptor (Homo sapiens, UniProt P34998); assay: Activity at anti-target CFR1R receptor, cAMP assay in CRF1R-overexpression CHO-K1 cells; assay type: cell-based; settings: 100% = Sauvagine at 100 nM; for pEC50: cAMP
T1 construct: host or cells: CHO-K1 (clone 2)
T1 sequence (P34998 24-415): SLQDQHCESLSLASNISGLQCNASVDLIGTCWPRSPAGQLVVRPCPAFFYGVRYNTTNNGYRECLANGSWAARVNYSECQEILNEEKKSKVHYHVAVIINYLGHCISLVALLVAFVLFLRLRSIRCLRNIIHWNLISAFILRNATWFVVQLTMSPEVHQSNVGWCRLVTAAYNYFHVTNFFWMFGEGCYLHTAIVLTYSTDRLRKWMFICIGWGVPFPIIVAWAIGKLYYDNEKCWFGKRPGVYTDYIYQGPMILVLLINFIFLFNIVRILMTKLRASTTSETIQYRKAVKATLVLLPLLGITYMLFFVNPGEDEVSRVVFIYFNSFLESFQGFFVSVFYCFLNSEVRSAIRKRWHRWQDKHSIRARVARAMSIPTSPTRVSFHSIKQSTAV
Method in brief: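 Run as for the TeloHAEC line, except the full-activation control well received Sauvagine (100 nM) and final density was 4000 cells/well. Cells from clone 2 came from frozen aliquots of near-confluent cultures.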

human CRF2a receptor = molecular target: T2, human CRF2a receptor (Homo sapiens, UniProt Q13324); assay: Activity at human CRF2a receptor, cAMP functional assay in TeloHEAC cells; assay type: cell-based; settings: TeloHEAC cells stably expressing human CRF2a receptor, relative to urocortin 2 (100 nM = 100%)
T2 construct: expressed in transfected cells; host or cells: TeloHEAC cells
T2 sequence (Q13324 1-411): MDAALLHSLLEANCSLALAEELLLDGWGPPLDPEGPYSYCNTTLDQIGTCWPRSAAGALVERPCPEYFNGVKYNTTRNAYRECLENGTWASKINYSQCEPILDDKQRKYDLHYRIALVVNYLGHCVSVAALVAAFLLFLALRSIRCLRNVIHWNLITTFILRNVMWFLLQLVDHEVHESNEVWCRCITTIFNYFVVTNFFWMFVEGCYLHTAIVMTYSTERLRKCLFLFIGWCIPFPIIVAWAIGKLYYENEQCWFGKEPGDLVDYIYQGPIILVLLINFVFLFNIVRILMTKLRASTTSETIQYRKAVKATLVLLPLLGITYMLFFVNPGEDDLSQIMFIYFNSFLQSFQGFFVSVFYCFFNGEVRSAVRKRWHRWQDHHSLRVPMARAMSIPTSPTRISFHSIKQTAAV
Method in brief: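 cAMP accumulation was measured by HTRF 665/620 nm ratio after 30 min at 37° C compound exposure (16 twofold dilutions) of CRF2a-expressing TeloHEAC cells, 10000/well, in HEPES-buffered HBSS plus IBMX. Activity was normalised to urocortin 2 at 100 nM (100%), and EC50 was the concentration giving half-maximal activation.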

Emax (% I) (CFR1R receptor) | pEC50 (CFR1R receptor) | pEC50 (human CRF2a receptor) | Compound
10 % I | < 6.60 | 9.77 | CC[C@H](C)[C@H](NC(C)=O)C(=O)N[C@H](C(=O)N[C@@H](CC(C)C)C(=O)N[C@@H](CO)C(=O)N[C@@H](CC(C)C)C(=O)N[C@@H](CC(=O)O)C(=O)N[C@@H](C(=O)N1CCC[C@H]1C(=O)N[C@H](C(=O)N[C@@H](CCCCN)C(=O)N[C@@H](CC(C)C)C(=O)N[C@@H](CCCCNC(=O)CC[C@H](NC(=O)CCCCCCCCCCCCCCCCC(=O)O)C(=O)O)C(=O)N[C@@H](CCCCN)C(=O)N[C@H](C(=O)N[C@@H](CC(C)C)C(=O)N[C@@H](CC(C)C)C(=O)N[C@@H](CCC(=O)O)C(=O)N[C@@H](CCC(N)=O)C(=O)N[C@@H](CCC(=O)O)C(=O)N[C@@H](CCCCN)C(=O)N[C@@H](CCC(N)=O)C(=O)N[C@@H](CCCCN)C(=O)N[C@@H](CCCCN)C(=O)N[C@@H](CCC(N)=O)C(=O)N[C@@H](CCCNC(=N)N)C(=O)N[C@@H](CCC(=O)O)C(=O)N[C@@H](CCC(N)=O)C(=O)N[C@@H](C)C(=O)N[C@@H](CCC(=O)O)C(=O)N[C@H](C(=O)N[C@@H](CC(N)=O)C(=O)N[C@@H](CN)C(=O)N[C@@H](CCC(N)=O)C(=O)N[C@H](C(=O)N[C@@H](CC(C)C)C(=O)N[C@@H](C)C(=O)N[C@@H](CCC(N)=O)C(=O)N[C@H](C(N)=O)C(C)C)[C@@H](C)CC)[C@@H](C)O)[C@@H](C)CC)[C@@H](C)CC)C(C)C)C(C)C [compound 128] (Ac-IVLSLD[dV]PIKLK([γGlu-C18 diacid])KILLEQEKQKKQREQAETN[Dap]QILAQV-NH2)
39 % I |  | 9.85 | CC[C@H](C)[C@H](NC(C)=O)C(=O)N[C@H](C(=O)N[C@@H](CC(C)C)C(=O)N[C@@H](CO)C(=O)N[C@@H](CC(C)C)C(=O)N[C@@H](CC(=O)O)C(=O)N[C@@H](C(=O)N1CCC[C@H]1C(=O)N[C@H](C(=O)N[C@@H](CCCCN)C(=O)N[C@@H](CC(C)C)C(=O)N[C@@H](CCCCNC(=O)CC[C@H](NC(=O)CCCCCCCCCCCCCCCCC(=O)O)C(=O)O)C(=O)N[C@@H](CCCCN)C(=O)N[C@H](C(=O)N[C@@H](CC(C)C)C(=O)N[C@@H](CC(C)C)C(=O)N[C@@H](CCC(=O)O)C(=O)N[C@@H](CCC(N)=O)C(=O)N[C@@H](CCC(=O)O)C(=O)N[C@@H](CCCCN)C(=O)N[C@@H](CCC(N)=O)C(=O)N[C@@H](CCCCN)C(=O)N[C@@H](CCCCN)C(=O)N[C@@H](CCC(N)=O)C(=O)N[C@@H](CCCNC(=N)N)C(=O)N[C@@H](CCC(=O)O)C(=O)N[C@@H](CCC(N)=O)C(=O)N[C@@H](C)C(=O)N[C@@H](CCC(=O)O)C(=O)N[C@H](C(=O)N[C@@H](CC(N)=O)C(=O)NC1(C(=O)N[C@@H](CCC(N)=O)C(=O)N[C@H](C(=O)N[C@@H](CC(C)C)C(=O)N[C@@H](C)C(=O)N[C@@H](CCC(N)=O)C(=O)N[C@H](C(N)=O)C(C)C)[C@@H](C)CC)CCNCC1)[C@@H](C)O)[C@@H](C)CC)[C@@H](C)CC)C(C)C)C(C)C [compound 129] (Ac-IVLSLD[dV]PIKLK([γGlu-C18 diacid])KILLEQEKQKKQREQAETN[Api]QILAQV-NH2)
4 % I | < 6.60 | 10.10 | CC[C@H](C)[C@H](NC(C)=O)C(=O)N[C@H](C(=O)N[C@@H](CC(C)C)C(=O)N[C@@H](CO)C(=O)N[C@@H](CC(C)C)C(=O)N[C@@H](CC(=O)O)C(=O)N[C@@H](C(=O)N1CCC[C@H]1C(=O)N[C@H](C(=O)N[C@@H](CCCCN)C(=O)N[C@@H](CC(C)C)C(=O)N[C@@H](CCCCNC(=O)CC[C@H](NC(=O)CCCCCCCCCCCCCCCCC(=O)O)C(=O)O)C(=O)N[C@@H](CCCCN)C(=O)N[C@H](C(=O)N[C@@H](CC(C)C)C(=O)N[C@@H](CC(C)C)C(=O)N[C@@H](CCC(=O)O)C(=O)N[C@@H](CCC(N)=O)C(=O)N[C@@H](CCC(=O)O)C(=O)N[C@@H](CCCCN)C(=O)N[C@@H](CCC(N)=O)C(=O)N[C@@H](CCCCN)C(=O)N[C@@H](CCCCN)C(=O)N[C@@H](CCC(N)=O)C(=O)N[C@@H](CCCNC(=N)N)C(=O)N[C@@H](CCC(=O)O)C(=O)N[C@@H](CCC(N)=O)C(=O)N[C@@H](C)C(=O)N[C@@H](CCC(=O)O)C(=O)N[C@H](C(=O)N[C@@H](CC(N)=O)C(=O)N[C@@H](CCC(=O)O)C(=O)N[C@@H](CCC(N)=O)C(=O)N[C@H](C(=O)N[C@@H](CC(C)C)C(=O)N[C@@H](C)C(=O)N[C@@H](CCC(N)=O)C(=O)N[C@H](C(N)=O)C(C)C)[C@@H](C)CC)[C@@H](C)O)[C@@H](C)CC)[C@@H](C)CC)C(C)C)C(C)C [compound 130] (Ac-IVLSLD[dV]PIKLK([γGlu-C18 diacid])KILLEQEKQKKQREQAETNEQILAQV-NH2)
10 % I | < 6.60 | 9.30 | CC[C@H](C)[C@H](NC(C)=O)C(=O)N[C@H](C(=O)N[C@@H](CC(C)C)C(=O)N[C@@H](CO)C(=O)N[C@@H](CC(C)C)C(=O)N[C@@H](CC(=O)O)C(=O)N[C@@H](C(=O)N1CCC[C@H]1C(=O)N[C@H](C(=O)N[C@@H](CCCCN)C(=O)N[C@@H](CC(C)C)C(=O)N[C@@H](CCCCNC(=O)CC[C@H](NC(=O)CCCCCCCCCCCCCCCCC(=O)O)C(=O)O)C(=O)N[C@@H](CCCCN)C(=O)N[C@H](C(=O)N[C@@H](CC(C)C)C(=O)N[C@@H](CC(C)C)C(=O)N[C@@H](CCC(=O)O)C(=O)N[C@@H](CCC(N)=O)C(=O)N[C@@H](CCC(=O)O)C(=O)N[C@@H](CCCCN)C(=O)N[C@@H](CCC(N)=O)C(=O)N[C@@H](CCCCN)C(=O)N[C@@H](CCCCN)C(=O)N[C@@H](CCC(N)=O)C(=O)N[C@@H](CCCNC(=N)N)C(=O)N[C@@H](CCC(=O)O)C(=O)N[C@@H](CCC(N)=O)C(=O)N[C@@H](C)C(=O)N[C@@H](CCC(=O)O)C(=O)N[C@H](C(=O)N[C@@H](CC(N)=O)C(=O)NC1(C(=O)N[C@@H](CCC(N)=O)C(=O)N[C@H](C(=O)N[C@@H](CC(C)C)C(=O)N[C@@H](C)C(=O)N[C@@H](CCC(N)=O)C(=O)N[C@H](C(N)=O)C(C)C)[C@@H](C)CC)CCCCC1)[C@@H](C)O)[C@@H](C)CC)[C@@H](C)CC)C(C)C)C(C)C [compound 134] (Ac-IVLSLD[dV]PIKLK([γGlu-C18 diacid])KILLEQEKQKKQREQAETN[Ac6c]QILAQV-NH2)
15 % I | < 6.60 | 9.72 | CC[C@H](C)[C@H](NC(C)=O)C(=O)N[C@H](C(=O)N[C@@H](CC(C)C)C(=O)N[C@@H](CO)C(=O)N[C@@H](CC(C)C)C(=O)N[C@@H](CC(=O)O)C(=O)N[C@@H](C(=O)N1CCC[C@H]1C(=O)N[C@H](C(=O)N[C@@H](CCCCN)C(=O)N[C@@H](CC(C)C)C(=O)N[C@@H](CCCCNC(=O)CC[C@H](NC(=O)CCCCCCCCCCCCCCCCC(=O)O)C(=O)O)C(=O)N[C@@H](CCCCN)C(=O)N[C@H](C(=O)N[C@@H](CC(C)C)C(=O)N[C@@H](CC(C)C)C(=O)N[C@@H](CCC(=O)O)C(=O)N[C@@H](CCC(N)=O)C(=O)N[C@@H](CCC(=O)O)C(=O)N[C@@H](CCCCN)C(=O)N[C@@H](CCC(N)=O)C(=O)N[C@@H](CCCCN)C(=O)N[C@@H](CCCCN)C(=O)N[C@@H](CCC(N)=O)C(=O)N[C@@H](CCCNC(=N)N)C(=O)N[C@@H](CCC(=O)O)C(=O)N[C@@H](CCC(N)=O)C(=O)N[C@@H](C)C(=O)N[C@@H](CCC(=O)O)C(=O)N[C@H](C(=O)N[C@@H](CC(N)=O)C(=O)NC1(C(=O)N[C@@H](CCC(N)=O)C(=O)N[C@H](C(=O)N[C@@H](CC(C)C)C(=O)N[C@@H](C)C(=O)N[C@@H](CCC(N)=O)C(=O)N[C@H](C(N)=O)C(C)C)[C@@H](C)CC)CCCC1)[C@@H](C)O)[C@@H](C)CC)[C@@H](C)CC)C(C)C)C(C)C [compound 135] (Ac-IVLSLD[dV]PIKLK([γGlu-C18 diacid])KILLEQEKQKKQREQAETN[Ac5c]QILAQV-NH2)
